Reference: PubChem BioAssay AID2305 (GlaxoSmithKline (GSK), 2010)

What follows are molecules tested on P. falciparum 3D7 growth, pLDH absorbance (assay: P. falciparum 3D7 growth inhibition, dose response, strain 3D7 (AID 2305)).

SMILES	IC50
O=C(Nc1cc(F)cc(F)c1)N[C@H]1CCN(CCCCCNC(=O)[C@@H]2C[C@H]2c2ccc(Cl)c(Cl)c2)C1	1080 nM
NCC1CCCN1Cc1ccc(-c2ccc(-c3nc4ccc(F)cc4[nH]3)cc2)cc1 (centres undefined)	930 nM
COc1cccc2cc(C(=O)N[C@@H](CC(C)C)C(=O)N[C@H](/C=N/N3CCCC3=O)Cc3ccccc3)oc12	560 nM
Cc1c(CNCCN2CCCCC2)c(C(=O)O)c(C)n1Cc1ccc(Cl)cc1	420 nM
CCCN(CCC)C(=O)c1cc(-c2cccc(C)c2)nc2ccccc12	1060 nM
C[C@H](CNc1ccnc(Nc2ccc3[nH]c(=O)[nH]c3c2)n1)c1ccccc1	1310 nM
CS(=O)(=O)CCNCc1cccc(-c2cc3c(Nc4ccc5c(cnn5Cc5ccccc5)c4)ncnc3s2)c1	550 nM
NC1CCN(Cc2ccc(-c3cccc(-c4nc5ccc(F)cc5[nH]4)c3)cc2)C1 (centres undefined)	760 nM
Cc1cc(-c2ccnc(Nc3cccc(C#N)c3)n2)cc(C)c1O	920 nM
CCCCCCc1cnc2nc(N)nc(N)c2c1C	190 nM
O=C(c1ccccc1)N1CCC(CN2CCOC(c3ccccc3)(c3ccccc3)C2)CC1	500 nM
CC(=O)Nc1nc(C(=O)Nc2ccc(-c3cccc(-c4nc5c(C)cccc5[nH]4)c3)cc2)cs1	230 nM
N#Cc1cccc(NC(=O)Nc2cccc(OC3CCN(Cc4ccccc4)CC3)c2)c1	840 nM
COc1cc(C)nc2ccc(NC(=O)c3ccc(C(=O)Nc4ccc5nc(C)cc(OC)c5c4)cc3)cc12	60 nM
FC(F)(F)c1ccc(CNC2CCN(CC3CCCCC3)CC2)cc1	930 nM
COc1ccc(Cc2cnc(N)nc2N)cc1OCCCOc1ccccc1	910 nM
CCCCCc1cc(O)c2c(c1)OC(C)(C)CC2C1=CCN(Cc2ccccc2)CC1 (centres undefined)	770 nM
Clc1ccc(-c2cnc3ccc(NCc4ccncc4)nn23)cc1	890 nM
Cc1ccc2c(=O)cc(CCc3cccc(F)c3F)n(CC(=O)N(Cc3ccc(-c4ccc(C(F)(F)F)cc4)cc3)C3CCN(C)CC3)c2n1	1260 nM
CN1Cc2ccc(NS(=O)(=O)c3ccc(-c4ccoc4)cc3)cc2C1	160 nM
OC(c1cc(C(F)(F)F)nc2c(C(F)(F)F)cccc12)C1CCCCN1 (centres undefined)	70 nM
Cc1noc(NC(=O)c2sc3ccccc3c2O)c1C	850 nM
Cc1c(C)c2c(c(C)c1O)CC[C@@](C)(C(=O)N1CCC(CN3CCC(c4c[nH]c5ccccc45)CC3)CC1)O2	660 nM
CC(Nc1ncc(-c2ccsc2)c(-c2nccs2)n1)c1ccc2c(c1)OCCO2 (centres undefined)	170 nM
O=C(Nc1ccc2c(c1)CCN2C1CCN(Cc2ccc(F)cc2Cl)C1)c1ccco1 (centres undefined)	470 nM

SMILES	IC50
c1ccc(CCNc2ccnc(Nc3ccc4n[nH]nc4c3)n2)cc1	860 nM
COc1c(C2CCN(CCCCNC(=O)c3cccc(-c4ccc(C(F)(F)F)cc4)c3)CC2)ccc2c1CCCC2	780 nM
COc1ccc(Nc2ncc3c(-c4cccc(NC(=O)Cc5cccc(O)c5)c4)c[nH]c3n2)cc1OC	700 nM
CC(C)NCC(=O)Nc1cccc(C(=O)Nc2cccc(C(F)(F)F)c2)c1	270 nM
CS(=O)(=O)NCCCNCc1ccc(-c2ccc(-c3nc4ccc(C(F)(F)F)cc4[nH]3)cc2)cc1	460 nM
CSc1ccc2ccccc2c1CNCCCCCCNCc1c(SC)ccc2ccccc12	800 nM
Oc1ccc(CCNc2nc(NCc3cccc(-c4cc(C(F)(F)F)ccc4Cl)c3)nc(N3CCNCC3)n2)cc1	1780 nM
CCOC(=O)NC1=NC(C)(C)N(OCCCOc2cc(Cl)c(Cl)cc2Cl)C(NC(=O)OCC)=N1	30 nM
CCCCCCCN(Cc1ccc(OC(C)(C)C(=O)OCC)cc1)C(=O)Nc1ccc(Cl)cc1OCC	820 nM
Cc1ccc(-c2noc(=O)n2CC(=O)Nc2ccccc2-c2ccccc2)cc1	810 nM
Cc1[nH]c(C)c(-c2csc3ccccc23)c(=O)c1Cl	1020 nM
CC(C)n1cc(CN2CCCC(C(=O)Nc3cccc(-c4cc5ccccc5[nH]4)c3)C2)cn1 (centres undefined)	1000 nM
Cc1cccc2[nH]c(-c3cccc(-c4ccc(CNCc5cccc(N)c5)cc4)c3)nc12	260 nM
O=C(Nc1ccccc1Oc1ccccc1)NC1CCN(c2ccnc3cc(Cl)ccc23)C1 (centres undefined)	170 nM
CCCN(CC1CC1)c1ncc(-c2ccccc2CNCc2ccccc2O)cn1	500 nM
O=C(Nc1ccc(OC2CCN(Cc3ccc(F)cc3)CC2)c(Cl)c1)c1ccco1	300 nM
Cc1c(F)cc(C(=O)NC2CC2)cc1-c1ccc2c(cnn2S(=O)(=O)c2ccc(F)c(F)c2)c1	270 nM
CC1(C)N=C(N)N=C(N)N1c1cc(Cl)c(Cl)c(Cl)c1	10 nM
Nc1nc(N)c2c3c(cnc2n1)CCCC3	770 nM
O=[N+]([O-])c1ccc(NC(=NCCOc2ccccc2)Nc2ccccc2Br)c(O)c1	1050 nM
Cc1nc2ccc3ccc(CNc4ccc(C#N)cc4)cc3c2c(=O)[nH]1	1440 nM
CCc1cn2c3c(cc(C(=O)N[C@@H](Cc4ccccc4)[C@H](O)CNCc4ccc(C)cc4)cc13)N(C)S(=O)(=O)CC2	550 nM
Cn1cc(C2CCN(CCCCNC(=O)c3ccc(C(=O)Nc4ccc(C#N)cc4)cc3)CC2)c2ccccc21	720 nM
CCc1ccc(CN2CCCCC(NC(=O)c3cc(-c4ccccc4F)cs3)C2)cc1 (centres undefined)	1160 nM
COc1ccc(CC(C)NCC(O)c2ccc(Cl)c(Cl)c2)cc1 (centres undefined)	720 nM

SMILES	IC50
CCCCCn1c(Sc2ccc(C#N)c([N+](=O)[O-])c2)nnc1-c1ccc(Cl)cc1	1080 nM
CS(=O)(=O)CCNCc1nc(-c2ccc3ncnc(Nc4ccc(OCc5cccc(F)c5)c(Cl)c4)c3c2)cs1	770 nM
CCOC(=O)c1ccc(N2CCN(c3cc(C)ccc3C)CC2)c(NC(=O)Nc2ccc(Cl)c(Cl)c2)c1	710 nM
Cc1cc(O)c(CN(C)Cc2ccc(N(C)C)cc2)cc1C(C)C	550 nM
Clc1ccc(C=NNc2ccnc3ccccc23)cc1	720 nM
O=C(Nc1cccc(-c2cccc(-c3nc4ccc(F)cc4[nH]3)c2)c1)c1ccoc1	330 nM
CS(=O)(=O)Nc1ccc2[nH]cc(C3CCN(CC4CCN(C(=O)/C=C/c5ccc(Cl)c(Cl)c5)CC4)CC3)c2c1	720 nM
COc1ccc2c(NN=Cc3ccc(Cl)cc3)ccnc2c1	870 nM
CCn1c(C)c(C)c2cc(C(=O)Nc3ccon3)ccc21	730 nM
CSc1ccc(CN2CCC(CNC(=O)c3cc(-c4ccccc4F)cs3)C2)cc1 (centres undefined)	1140 nM
Cc1ccc(S(=O)(=O)Nc2ccc(Nc3nccc(Nc4cccc5[nH]ncc45)n3)cc2)cc1	960 nM
CCOC(=O)c1ccc(NC(=O)Nc2ccc(Cn3ncc(N4CCCNCC4)c(Cl)c3=O)cc2)cc1	440 nM
COc1ccc(NC(=O)c2ccc(-c3nc(-c4ccccc4)cs3)cc2)cc1N1CCN(C)CC1	990 nM
O=C(NCCCN1CCC(N2CCCCC2)CC1)c1ccc(N2CCOc3ccccc32)s1	730 nM
COc1cc2nc(N3CCN(C(=O)c4c(Cl)nsc4-c4ccccc4Cl)CC3)nc(N)c2cc1OC	530 nM
Cc1ncccc1C(=O)Nc1ccc(-c2cccc(-c3nc4c(C)cccc4[nH]3)c2)cc1	730 nM
Cc1cccc(NC(=O)c2ccc(C(=O)NC3CCN(CC4CCCCC4)CC3)cc2)c1	810 nM
O=C(C=Cc1ccc(Cl)c(Cl)c1)NCCCCCN1CCC(CCCNC(=O)c2sc3ccccc3c2Cl)CC1	400 nM
COc1cc2nc(N[C@@H](CO)c3ccccc3)nc(NCc3ccccc3)c2cc1OC	660 nM
CC(=O)Nc1cccc(C(=O)Nc2cccc(-c3ccc(-c4nc5c(C)cccc5[nH]4)s3)c2)c1	770 nM
CCCCCCCC1CCN(C[C@H](O)c2ccnc3ccc(OC)cc23)CC1	960 nM
CCc1nc2c(N)nc(N)nc2nc1-c1ccc(OC)cc1	1200 nM
CC1(C)N=C(N)N=C(N)N1OCCCNC(=O)c1ccc(C(=O)NCCCON2C(N)=NC(N)=NC2(C)C)cc1	20 nM
COc1ccc(C(=O)NC(Nc2ccc([N+](=O)[O-])cc2)C(Cl)(Cl)Cl)cc1 (centres undefined)	1070 nM
CNC(=O)COC(=O)c1c2c(nc3ccccc13)C(=Cc1ccc3c(c1)OCO3)CCC2	640 nM

SMILES	IC50
CC(C)CNCc1cccc(-c2cccc(CN(C(=O)NC3CCCCC3)C3CCN(Cc4ccccc4)CC3)c2)c1	820 nM
O=C(Cc1cccc2ccccc12)N1CCc2cc3nccc(N4CCN5CCC[C@H]5C4)c3cc21	780 nM
Cc1cc(-c2cnc(N)c(-c3ccc(N4CCN(C)CC4)nc3)c2)cc(C)c1O	1400 nM
O=C(/C=C/c1ccc(Cl)c(Cl)c1)NCCCCCN1CCC(NC(=S)Nc2ccc(Cl)c(Cl)c2)CC1	530 nM
C[C@H](Cc1ccc(CCc2ccc(C[C@@H](C)NC[C@H](O)c3cccc(Cl)c3)cc2)cc1)NC[C@H](O)c1cccc(Cl)c1	940 nM
Oc1ccc(Nc2ccnc3cc(Cl)ccc23)cc1	740 nM
COc1cc2c(cc1OC)CN(CCCCNC(=O)c1ccc(NC(=O)c3cc(Cl)cc(Cl)c3)cc1)CC2	780 nM
Cc1nc(-c2nc(N3CCOCC3)ncc2-c2ccsc2)sc1C	320 nM
c1cc(CNC2CCN(CC3CCCCC3)CC2)cc(-n2ccnc2)c1	650 nM
Cc1ccc(S(=O)(=O)/N=C(\N)NC(N)=O)cc1	790 nM
CCC(C)(C)c1ccc(Oc2ccc(NC(=O)Nc3ccc(Cl)c(Cl)c3)cc2)cc1	700 nM
CCOc1ccc2c(NN=Cc3c4ccccc4cc4ccccc34)cc(C)nc2c1	1070 nM
N/C(=N\c1cccc(Cc2ccc([N+](=O)[O-])cc2)n1)Nc1ccccc1	950 nM
CN1CCC(N2CCC(Oc3cccc(C(=O)NCCCC4CCCC4)c3)CC2)CC1	840 nM
COc1cccc2cc(C(=O)N[C@@H](CC(C)C)C(=O)N[C@H](/C=N/NC(=O)OC(C)(C)C)CC(=O)OC(C)(C)C)oc12	400 nM
COc1ccc2nccc(N3CCC(CCNCc4ccc5c(n4)NC(=O)CO5)CC3)c2n1	1000 nM
Cc1cc(N[C@@H](Cc2ccccc2)C(=O)NCCOc2ccccc2)nc(Nc2ccccc2)n1	870 nM
CC1=C(C(=O)Nc2cc3cn[nH]c3cc2F)C(c2cccc(NS(C)(=O)=O)c2)CC(=O)N1 (centres undefined)	430 nM
Nc1ncnc2cc(-c3cccc(NC(=O)Nc4ccccc4)c3)sc12	710 nM
COc1ccc2nccc([C@@H](O)CN3CCC(NCc4ccc5c(c4)sc(=O)n5C)CC3)c2c1	260 nM
Cc1cc(N[C@@H](Cc2ccccc2)C(=O)NCc2cccs2)nc(Nc2ccccc2)n1	1240 nM
COc1ccc(-n2c(=O)c3c(n4c(SC(C)C)nnc24)-c2ccccc2CC32CCCCC2)cc1	500 nM
O=C(Nc1ccsc1)Nc1cccc(-c2cccc(-c3nc4ccccc4[nH]3)c2)c1	120 nM
O=C(CC1CCCC1)Nc1ccc2c(c1)CCC2	870 nM
